Measured values: publication PMC5522529, “Mechanisms of Paradoxical Activation of AMPK by the Kinase Inhibitors SU6656 and Sorafenib” (Cell Chemical Biology, 2017)

Columns and labels:
Conditions in all cases: 1 hr
AMPK = AMPK activity and Thr172 phosphorylation in HEK293 cells; format: cell-based, human
Description: Figure 1 SU6656 Activates AMPK but Not AMPK-Related Kinases (A) HEK293 cells were incubated with the indicated concentrations of SU6656 or berberine (300 μM) for 1 hr; total AMPK activity was assayed in immunoprecipitates (top; mean ± SEM, n = 4), and phosphorylation of AMPK (Thr172), ACC (Ser80), and Raptor (Ser792) analyzed by western blotting (bottom; n = 2). (B) HEK293 cells were incubated with 100 μM SU6656 (1 hr), AMPK complexes containing α1, α2, β1, and β2 immunoprecipitated using isoform-specific antibodies, and AMPK activity measured (mean ± SEM, n = 4). (C) HeLa cells stably expressing LKB1 ([Fogarty et al., 2010]) were incubated with 100 μM SU6656 for 1 hr, AMPK or individual ARKs immunoprecipitated, and kinase assays carried out (antibodies that distinguish MARK2/MARK3 were not available, so they were assayed together). Results are means ± SEM (n = 2). In all panels, asterisks indicate significant differences from controls without SU6656. *p < 0.05, **p < 0.01, ****p < 0.0001. […]
Endogenous AMPK was immunoprecipitated using the specified antibodies (for total AMPK, an equal mixture of anti-α1 and –α2 antibodies) and assayed at 200 μM ATP ([Hardie et al., 2000], [Towler et al., 2008]) using the AMARA peptide ([Dale et al., 1995]) as substrate, except for assays of allosteric activation by AMP (Figure 5A) where the SAMS peptide was used as substrate with 2 mM ATP ([Gowans et al., 2013]). The AMPK-related kinases SIK1, SIK2, SIK3, SNARK, MARK2/3 and MARK4 were immunoprecipitated and assayed as previously described ([Lizcano et al., 2004]) in lysates of Hela cells stably expressing LKB1 ([Fogarty et al., 2010]). LKB1 was assayed using the LKBtide peptide as substrate ([Sakamoto et al., 2004]).

HEK293 cells = assay: Cellular AMP:ATP and ADP:ATP ratios; format: cell-based, human
Description: (B) WT or RG cells were treated as in (A) and nucleotides extracted for analysis (mean ± SD, n = 3). […] (E) (See also Figure S2) Time courses of cellular oxygen uptake before and after addition of the indicated concentrations of sorafenib (SO, μM), SU6656 (100 μM) or phenformin (PHEN, 10 mM) (mean ± SEM, n = 4). (F) Effect of various concentrations of sorafenib or phenformin (10 mM) on activation (top, mean ± SEM, n = 3) or phosphorylation (bottom) of AMPK in cells expressing wild-type AMPK-γ2 (WT) or the R531G mutant AMPK-γ2 (RG). In all panels, asterisks show significant differences from DMSO controls (ns, not significant). In (B), daggers (†) show significant differences between results in WT and RG cells. *p < 0.05, **p < 0.01, ***p < 0.001, ****p < 0.0001, ^††††p < 0.0001.
Cells were incubated for 60 min and AMPK activity measured; results in the top panel are means ± SEM (n = 8), with significant differences from the DMSO control indicated (ns, not significant). The bottom panels show western blots from the same experiment (n = 2). (B) Analysis of AMP:ATP and ADP:ATP ratios from a parallel experiment to that in (A). Results are means ± SEM (n = 3), with significant differences from the DMSO control indicated. *p < 0.05, **p < 0.01, ****p < 0.0001.
The levels of AMP, ADP and ATP were measured using a TSQ Quantiva interfaced with Ultimate 3000 Liquid Chromatography system (ThermoScientific), equipped with a porous graphitic carbon column (HyperCarb 30x1mm ID 3 μm; Part No: C-35003-031030, Thermo-Scientific). Mobile phase buffer A consisted of 0.3% (v/v) formic acid adjusted to pH 9 with ammonia prior to a 1:10 dilution. Mobile phase buffer B was 80% (v/v) acetonitrile. The column was maintained at a controlled temperature of 30°C and was equilibrated with 10% buffer B for 5 minutes at a constant flow rate of 0.06 mL/min. Aliquots of 1 μL of each sample were loaded onto the column and compounds eluted with a linear gradient of 10%-60% buffer B over 9 min. Buffer B was then increased to 100% within 1 min, and the column washed for 5 min with 100% Buffer B. Eluents were sprayed into the TSQ Quantiva using Ion Max NG ion source with ion transfer tube temperature set to 350°C and vaporizer temperature 125°C. The TSQ Quantiva was run in negative mode with a spray voltage of 2600, sheath gas 40 and Aux gas 10. Levels of ATP, ADP and AMP were measured using multiple reactions monitoring mode (MRM) with optimised collision energies and radio frequencies previously determined by infusing pure compounds. Three transitions were used to monitor each of the three compounds, ATP (505.92>158.98, 505.92>408.12 and 505.92>426.12), ADP (426.98>158.98, 426.98>328.78 and 426.98>409.09) and AMP (345.96>134.20, 345.96>151.27 and 345.96>211.12).

[1] = molecular target: T1, endogenous full-length α1 complexes (Homo sapiens, UniProt Q13131); assay: Activity of endogenous full-length α1 complexes in HEK293 cells; format: cell-based
T1 construct: endogenous in cells
Description: We next expressed an FLAG-tagged α1 kinase domain (α1-KD, residues 1–312) by transient transfection in HEK293 cells, treated the cells with various AMPK activators, and then assayed both the expressed α1-KD (precipitated using anti-FLAG) and endogenous full-length α1 complexes (precipitated using anti-α1 antibodies recognizing an epitope outside the α1-KD). […] This was also observed with A23187, as expected since this ionophore increases intracellular Ca^2+ and activates the alternate upstream kinase CaMKK2.
The α1-KD was precipitated using anti-FLAG and endogenous AMPK complexes using anti-α1 antibody, and activity determined. Results (mean ± SD, n = 2) are expressed relative to activities in DMSO controls. (B) Western blots (n = 2) using the indicated antibodies; samples from experiment in (A). (C) DNAs encoding FLAG-tagged AMPK-α1 (WT or AT mutant) were expressed by transient transfection in HEK293 cells, the cells treated with increasing concentrations of SU6656 for 1 hr, AMPK complexes precipitated with anti-FLAG, and activity measured. Results (mean ± SD, n = 3) are expressed relative to the DMSO control. […] Results (mean ± SD, n = 3) are expressed relative to the DMSO control. **p < 0.01, ***p < 0.001, ****p < 0.0001, ^†††p < 0.001; ns, not significant.

T1 sequence (Q13131 whole entry): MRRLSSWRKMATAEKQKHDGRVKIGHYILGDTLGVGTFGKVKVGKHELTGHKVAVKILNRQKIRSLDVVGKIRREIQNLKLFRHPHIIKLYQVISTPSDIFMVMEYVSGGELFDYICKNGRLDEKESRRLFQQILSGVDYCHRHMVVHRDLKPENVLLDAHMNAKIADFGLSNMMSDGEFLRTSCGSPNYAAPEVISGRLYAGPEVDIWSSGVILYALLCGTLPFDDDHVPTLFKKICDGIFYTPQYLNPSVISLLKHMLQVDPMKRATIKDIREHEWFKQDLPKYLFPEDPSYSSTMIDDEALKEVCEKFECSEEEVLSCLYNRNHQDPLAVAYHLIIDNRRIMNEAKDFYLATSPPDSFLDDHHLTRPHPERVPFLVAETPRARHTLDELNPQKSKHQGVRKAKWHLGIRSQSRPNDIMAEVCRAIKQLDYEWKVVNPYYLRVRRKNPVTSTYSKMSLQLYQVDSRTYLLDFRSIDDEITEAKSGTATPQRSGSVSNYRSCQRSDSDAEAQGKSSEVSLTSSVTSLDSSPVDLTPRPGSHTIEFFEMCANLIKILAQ
T1 sequence (P54619 whole entry partner): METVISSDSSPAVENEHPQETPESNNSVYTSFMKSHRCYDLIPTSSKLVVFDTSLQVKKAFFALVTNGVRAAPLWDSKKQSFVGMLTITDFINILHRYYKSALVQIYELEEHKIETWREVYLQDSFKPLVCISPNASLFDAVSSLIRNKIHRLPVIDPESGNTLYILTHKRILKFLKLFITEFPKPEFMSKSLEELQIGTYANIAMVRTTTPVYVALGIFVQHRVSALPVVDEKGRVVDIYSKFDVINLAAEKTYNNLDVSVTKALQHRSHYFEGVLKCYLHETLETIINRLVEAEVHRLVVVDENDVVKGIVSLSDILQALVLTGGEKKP

Row | SMILES | activation of AMPK complexes by subunit isoform (AMPK; 100 μM, isoform-specific antibodies) | AMPK activity / Thr172 phosphorylation (AMPK) | cellular AMP:ATP and ADP:ATP ratios (HEK293 cells) | kinase activity / Thr172 phosphorylation [1]
1 | CN(C)S(=O)(=O)c1ccc2c(c1)/C(=C/c1cc3c([nH]1)CCCC3)C(=O)N2 [SU6656] | activate AMPK complexes containing the α1, α2, β1, and β2 subunit isoforms | caused activation of AMPK | no significant effects | increased kinase activity
2 | CNC(=O)c1cc(Oc2ccc(NC(=O)Nc3ccc(Cl)c(C(F)(F)F)c3)cc2)ccn1 [sorafenib] | – | activated AMPK | increased cellular AMP:ATP and ADP:ATP ratios to a similar or even greater extent than phenformin | –
3 | COc1ccc2cc3[n+](cc2c1OC)CCc1cc2c(cc1-3)OCO2 [berberine] | – | much smaller degree of AMPK activation | robustly increased | doing this with the endogenous complexes
